Test results published in publication PMC10485095, “Structure and enzymatic characterization of CelD endoglucanase from the anaerobic fungus Piromyces finnis” (Applied Microbiology and Biotechnology, 2023).

Target: T1, CelD GH5 catalytic domain (construct 91–452) (Piromyces finnis, UniProt A0A1Y1V643)
T1 construct: gene BCR36DRAFT_398243; third GH5 catalytic domain of 136 kDa three-GH5, double-dockerin CelD; E. coli BL21-Gold(DE3), pMCSG68; N-terminal His/Strep tag cut by TEV for crystallisation; two molecules per asymmetric unit
Assay: X-ray crystallography, co-crystal, […] Å
Assay type: binding
Conditions: inactive acid/base mutant; 10 mM cellotriose added; bound at -3, -2, -1 subsites of active site; 0.1 M sodium acetate, 24% PEG 6000, 16 °C

T1 sequence (A0A1Y1V643 entry or part of it E900A): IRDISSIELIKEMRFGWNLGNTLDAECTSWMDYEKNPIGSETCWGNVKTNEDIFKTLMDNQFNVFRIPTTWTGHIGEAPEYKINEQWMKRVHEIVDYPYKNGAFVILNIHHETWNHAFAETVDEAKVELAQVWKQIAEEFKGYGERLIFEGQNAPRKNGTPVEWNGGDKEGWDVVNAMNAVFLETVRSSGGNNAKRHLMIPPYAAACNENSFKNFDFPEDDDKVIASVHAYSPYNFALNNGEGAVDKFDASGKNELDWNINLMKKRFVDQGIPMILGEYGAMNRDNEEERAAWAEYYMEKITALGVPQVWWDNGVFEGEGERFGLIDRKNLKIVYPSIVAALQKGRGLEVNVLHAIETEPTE

OC[C@H]1O[C@@H](O[C@H]2[C@H](O)[C@@H](O)[C@H](O[C@H]3[C@H](O)[C@@H](O)C(O)O[C@@H]3CO)O[C@@H]2CO)[C@H](O)[C@@H](O)[C@@H]1O (stereo partly shown) [cellotriose]
X-ray crystallography, co-crystal, 1.8 Å: The complex between the E154A mutant protein and cellotriose was formed by adding the ligand
